In paper PMC10318822, “Phase 1 dose-escalation study to evaluate the safety, tolerability, pharmacokinetics, and anti-tumor activity of FCN-159 in adults with neurofibromatosis type 1-related unresectable plexiform neurofibromas” (BMC Medicine, 2023):

Test system: adult patients with NF1-related PN
Assay: Phase I dose-escalation: DLT, MTD, RP2D and drug-related TEAEs (CTCAE v5.0)
Procedure: This is a multicenter, open-label, single-arm, non-randomized, phase I dose-escalation trial to evaluate the safety, tolerability, pharmacokinetic (PK), and anti-tumor activity of orally administered FCN-159 in adult patients with NF1 (NCT04954001). Phase I commenced with dose escalation in adult patients following a standard 3 + 3 design (Supplementary Table S1) to determine the maximum tolerated dose (MTD) of FCN-159 administered daily under fasting conditions (defined as no food or drink 1 h before and 2 h after each dose) in 28-day cycles. Study drug was dispensed at the study site and patient adherence was monitored by the records of drug dispensation and return. Patients were on treatment until PD, death, patient's voluntary withdrawal from study treatment, or study termination. The study was followed for 2 years after the last patient in. The starting dose was 4 mg, escalating in cohorts of at least three evaluable patients at 6 mg, 8 mg, and 12 mg until the MTD was determined. The starting dose in this study was determined based on available data from a phase 1a, first-in-human study of FCN-159 in patients with advanced NRAS ^mut+ melanoma at the time of study design. […] Dose expansion at a likely RP2D level enrolled approximately six patients. The highest dose level with a dose-limiting toxicity (DLT) incidence rate ≤ 33% (0/3 or 1/6 patients) was to be considered the MTD. If patients experienced grade ≥ 3 and/or unacceptable toxic events that were considered as at least possibly related to the study treatment, the study treatment was discontinued and supportive treatment was given in accordance with local treatment routines. If the toxicity returned to grade ≤ 2 within 28 days after the occurrence, and there was no progression on patients’ conditions or the investigator believed that patients could benefit from the study treatment, the original dose could be maintained or reduced after discussion with medical monitor. After completion of the dose escalation part of the study, PK, efficacy, safety, and tolerability data were analyzed to select the RP2D.
Primary endpoints of the study were the DLT incidence rate, MTD, and RP2D. Secondary endpoints included other safety assessments, imaging tumor response (complete response [CR], PR, stable disease [SD], or progressive disease [PD]), and PK parameters of FCN-159. Adverse events were graded per CTCAE v5.0.
All patients underwent a complete medical history, physical examination, Eastern Cooperative Oncology Group (ECOG) assessment, and laboratory analysis of test results. Drug-related TEAEs, serious adverse events (SAEs), TEAEs of grade ≥ 3 toxicity, and TEAEs leading to drug discontinuation were reviewed on an ongoing basis. Efficacy was assessed by radiologic scans and clinical assessment. Tumor assessments per Response Evaluation in Neurofibromatosis Schwannomatosis criteria were performed by investigators using MRI volumetric analysis every 4 cycles within the first 2 years (± 7 days) and every 6 cycles after 2 years (± 14 days) until PD, death, patient's voluntary withdrawal from study treatment, or study termination. MRI sequences of […], T1- and T2-weighted sequences were chosen and the software of Extended Brilliance Workspace, SIGNA Premier and uExceed were used for MRI volumetric analysis. The same software was used for all tumor assessments at baseline and subsequent assessed timepoints of the same patient. Pain was assessed by an 11-point numerical rating scale (NRS-11).
The sample size for the dose-escalation study was estimated to be 24 based on the 3 + 3 method. Safety was analyzed in patients who received at least one dose of FCN-159 and had at least one safety assessment. DLT was assessed in the DLT analysis set, defined as patients who were enrolled in the dose-escalation study and met the DLT evaluation criteria.

For `Cn1c(=O)c(F)c(Nc2ccc(I)cc2F)c2c(=O)n(C3CC3)nc(-c3cccc(NS(=O)(=O)C4CC4)c3)c21` [FCN-159], the DLT events (4 mg) was “No DLT events were observed”, the “Drug-related TEAE: Abdominal pain” value (4 mg (N = 3)) was 0 n (%) and the “Drug-related TEAE: Acne” value (4 mg (N = 3)) was 0 n (%). For the same compound, the “Drug-related TEAE: Acne pustular” value (4 mg (N = 3)) was 0 n (%), the “Drug-related TEAE: Alanine aminotransferase increased” value (4 mg (N = 3)) was 0 n (%) and the “Drug-related TEAE: Albumin globulin ratio decreased” value (4 mg (N = 3)) was 0 n (%). For the same compound, the “Drug-related TEAE: Alopecia” value (4 mg (N = 3)) was 0 n (%), the “Drug-related TEAE: Amylase increased” value (4 mg (N = 3)) was 0 n (%) and the “Drug-related TEAE: Anemia” value (4 mg (N = 3)) was 0 n (%). The “Drug-related TEAE: Aortic dilatation” value (4 mg (N = 3)) was 0 n (%), the “Drug-related TEAE: Aspartate aminotransferase increased” value (4 mg (N = 3)) was 0 n (%) and the “Drug-related TEAE: Asthenia” value (4 mg (N = 3)) was 0 n (%). The “Drug-related TEAE: Beta globulin decreased” value (4 mg (N = 3)) was 1 (33.3) n (%), the “Drug-related TEAE: Beta globulin increased” value (4 mg (N = 3)) was 1 (33.3) n (%) and the “Drug-related TEAE: Blood alkaline phosphatase increased” value (4 mg (N = 3)) was 0 n (%). The “Drug-related TEAE: Blood bilirubin increased” value (4 mg (N = 3)) was 1 (33.3) n (%), the “Drug-related TEAE: Blood creatine phosphokinase increased” value (4 mg (N = 3)) was 1 (33.3) n (%) and the “Drug-related TEAE: Blood fibrinogen increased” value (4 mg (N = 3)) was 0 n (%). The “Drug-related TEAE: Blood lactate dehydrogenase increased” value (4 mg (N = 3)) was 1 (33.3) n (%), the “Drug-related TEAE: Blood pressure increased” value (4 mg (N = 3)) was 0 n (%) and the “Drug-related TEAE: Blood urea increased” value (4 mg (N = 3)) was 1 (33.3) n (%). The “Drug-related TEAE: Blood uric acid increased” value (4 mg (N = 3)) was 1 (33.3) n (%), the “Drug-related TEAE: Breath odor” value (4 mg (N = 3)) was 0 n (%) and the “Drug-related TEAE: Capillary disorder” value (4 mg (N = 3)) was 1 (33.3) n (%). The “Drug-related TEAE: Constipation” value (4 mg (N = 3)) was 0 n (%), the “Drug-related TEAE: Decreased appetite” value (4 mg (N = 3)) was 0 n (%) and the “Drug-related TEAE: Dermatitis acneiform” value (4 mg (N = 3)) was 0 n (%). For the same compound, the “Drug-related TEAE: Diarrhea” value (4 mg (N = 3)) was 0 n (%), the “Drug-related TEAE: Drug eruption” value (4 mg (N = 3)) was 1 (33.3) n (%) and the “Drug-related TEAE: Dyslipidemia” value (4 mg (N = 3)) was 1 (33.3) n (%). For the same compound, the “Drug-related TEAE: Ejection fraction decreased” value (4 mg (N = 3)) was 0 n (%), the “Drug-related TEAE: Electrocardiogram QT prolonged” value (4 mg (N = 3)) was 0 n (%) and the “Drug-related TEAE: Electrocardiogram abnormal” value (4 mg (N = 3)) was 0 n (%). For the same compound, the “Drug-related TEAE: Epistaxis” value (4 mg (N = 3)) was 1 (33.3) n (%), the “Drug-related TEAE: Folliculitis” value (4 mg (N = 3)) was 0 n (%) and the “Drug-related TEAE: Functional gastrointestinal disorder” value (4 mg (N = 3)) was 0 n (%). For the same compound, the “Drug-related TEAE: Gamma-glutamyltransferase increased” value (4 mg (N = 3)) was 0 n (%), the “Drug-related TEAE: Gingival pain” value (4 mg (N = 3)) was 0 n (%) and the “Drug-related TEAE: Hyperlipidemia” value (4 mg (N = 3)) was 0 n (%). The “Drug-related TEAE: Hypertension” value (4 mg (N = 3)) was 0 n (%), the “Drug-related TEAE: Hypoalbuminemia” value (4 mg (N = 3)) was 0 n (%) and the “Drug-related TEAE: Hypocalcemia” value (4 mg (N = 3)) was 0 n (%). The “Drug-related TEAE: Hypophosphatemia” value (4 mg (N = 3)) was 0 n (%), the “Drug-related TEAE: Hypoproteinemia” value (4 mg (N = 3)) was 0 n (%) and the “Drug-related TEAE: Immunoglobulins increased” value (4 mg (N = 3)) was 2 (66.7) n (%). The “Drug-related TEAE: Impetigo” value (4 mg (N = 3)) was 1 (33.3) n (%), the “Drug-related TEAE: Left atrial enlargement” value (4 mg (N = 3)) was 0 n (%) and the “Drug-related TEAE: Lipoprotein abnormal” value (4 mg (N = 3)) was 1 (33.3) n (%). The “Drug-related TEAE: Malaise” value (4 mg (N = 3)) was 1 (33.3) n (%), the “Drug-related TEAE: Menstrual disorder” value (4 mg (N = 3)) was 0 n (%) and the “Drug-related TEAE: Mitral valve incompetence” value (4 mg (N = 3)) was 0 n (%). The “Drug-related TEAE: Mouth ulceration” value (4 mg (N = 3)) was 0 n (%), the “Drug-related TEAE: Muscular weakness” value (4 mg (N = 3)) was 0 n (%) and the “Drug-related TEAE: Oedema peripheral” value (4 mg (N = 3)) was 0 n (%). For the same compound, the “Drug-related TEAE: Pain in extremity” value (4 mg (N = 3)) was 1 (33.3) n (%), the “Drug-related TEAE: Paronychia” value (4 mg (N = 3)) was 1 (33.3) n (%) and the “Drug-related TEAE: Prealbumin decreased” value (4 mg (N = 3)) was 0 n (%). For the same compound, the “Drug-related TEAE: Protein urine present” value (4 mg (N = 3)) was 1 (33.3) n (%), the “Drug-related TEAE: Pruritus” value (4 mg (N = 3)) was 0 n (%) and the “Drug-related TEAE: QRS axis abnormal” value (4 mg (N = 3)) was 1 (33.3) n (%). For the same compound, the “Drug-related TEAE: Rash” value (4 mg (N = 3)) was 1 (33.3) n (%), the “Drug-related TEAE: Sinus arrhythmia” value (4 mg (N = 3)) was 1 (33.3) n (%) and the “Drug-related TEAE: Sinus bradycardia” value (4 mg (N = 3)) was 1 (33.3) n (%). For the same compound, the “Drug-related TEAE: Sinusitis” value (4 mg (N = 3)) was 0 n (%), the “Drug-related TEAE: Skin exfoliation” value (4 mg (N = 3)) was 0 n (%) and the “Drug-related TEAE: Specific gravity urine increased” value (4 mg (N = 3)) was 1 (33.3) n (%). The “Drug-related TEAE: Stomatitis” value (4 mg (N = 3)) was 2 (66.7) n (%), the “Drug-related TEAE: Supraventricular extrasystoles” value (4 mg (N = 3)) was 1 (33.3) n (%) and the “Drug-related TEAE: Total bile acids increased” value (4 mg (N = 3)) was 1 (33.3) n (%). For the same compound, the “Drug-related TEAE: Tricuspid valve incompetence” value (4 mg (N = 3)) was 0 n (%), the “Drug-related TEAE: Urinary occult blood positive” value (4 mg (N = 3)) was 0 n (%) and the “Drug-related TEAE: Urinary sediment present” value (4 mg (N = 3)) was 0 n (%). For the same compound, the “Drug-related TEAE: Urinary tract infection” value (4 mg (N = 3)) was 0 n (%), the “Drug-related TEAE: Urine ketone body present” value (4 mg (N = 3)) was 0 n (%) and the “Drug-related TEAE: Urobilinogen urine increased” value (4 mg (N = 3)) was 2 (66.7) n (%). For the same compound, the “Drug-related TEAE: Urticaria” value (4 mg (N = 3)) was 0 n (%), the “Drug-related TEAE: Vision blurred” value (4 mg (N = 3)) was 0 n (%) and the “Drug-related TEAE: Visual acuity reduced” value (4 mg (N = 3)) was 0 n (%). For the same compound, the “Drug-related TEAE: pH urine decreased” value (4 mg (N = 3)) was 0 n (%), the “Drug-related TEAE: pH urine increased” value (4 mg (N = 3)) was 1 (33.3) n (%) and the “Subjects with any drug-related TEAE” value (4 mg (N = 3)) was 3 (100) n (%). The DLT events (6 mg) was “No DLT events were observed”, the “Drug-related TEAE: Abdominal pain” value (6 mg (N = 4)) was 0 n (%) and the “Drug-related TEAE: Acne” value (6 mg (N = 4)) was 1 (25.0) n (%). The “Drug-related TEAE: Acne pustular” value (6 mg (N = 4)) was 0 n (%), the “Drug-related TEAE: Alanine aminotransferase increased” value (6 mg (N = 4)) was 1 (25.0) n (%) and the “Drug-related TEAE: Albumin globulin ratio decreased” value (6 mg (N = 4)) was 0 n (%). The “Drug-related TEAE: Alopecia” value (6 mg (N = 4)) was 1 (25.0) n (%), the “Drug-related TEAE: Amylase increased” value (6 mg (N = 4)) was 0 n (%) and the “Drug-related TEAE: Anemia” value (6 mg (N = 4)) was 0 n (%). For the same compound, the “Drug-related TEAE: Aortic dilatation” value (6 mg (N = 4)) was 0 n (%), the “Drug-related TEAE: Aspartate aminotransferase increased” value (6 mg (N = 4)) was 2 (50.0) n (%) and the “Drug-related TEAE: Asthenia” value (6 mg (N = 4)) was 1 (25.0) n (%). For the same compound, the “Drug-related TEAE: Beta globulin decreased” value (6 mg (N = 4)) was 0 n (%), the “Drug-related TEAE: Beta globulin increased” value (6 mg (N = 4)) was 1 (25.0) n (%) and the “Drug-related TEAE: Blood alkaline phosphatase increased” value (6 mg (N = 4)) was 1 (25.0) n (%). The “Drug-related TEAE: Blood bilirubin increased” value (6 mg (N = 4)) was 2 (50.0) n (%), the “Drug-related TEAE: Blood creatine phosphokinase increased” value (6 mg (N = 4)) was 0 n (%) and the “Drug-related TEAE: Blood fibrinogen increased” value (6 mg (N = 4)) was 0 n (%). The “Drug-related TEAE: Blood lactate dehydrogenase increased” value (6 mg (N = 4)) was 1 (25.0) n (%), the “Drug-related TEAE: Blood pressure increased” value (6 mg (N = 4)) was 0 n (%) and the “Drug-related TEAE: Blood urea increased” value (6 mg (N = 4)) was 2 (50.0) n (%). The “Drug-related TEAE: Blood uric acid increased” value (6 mg (N = 4)) was 1 (25.0) n (%), the “Drug-related TEAE: Breath odor” value (6 mg (N = 4)) was 2 (50.0) n (%) and the “Drug-related TEAE: Capillary disorder” value (6 mg (N = 4)) was 0 n (%). For the same compound, the “Drug-related TEAE: Constipation” value (6 mg (N = 4)) was 0 n (%).
